Literature values as cited in patent US10253031B2, “Stable pemetrexed arginine salt and compositions comprising it” (SYNTHON B.V., priority 2013, dated 2019).
Where a name gives a salt, the structure may show the parent alone.

Settings: background statement

| Solubility in water | Compound |
| --- | --- |
| soluble in water | Nc1nc2[nH]cc(CCc3ccc(C(=O)N[C@@H](CCC(=O)O)C(=O)O)cc3)c2c(=O)[nH]1 [Disodium salt of pemetrexed] |
| sparingly soluble | Nc1nc2[nH]cc(CCc3ccc(C(=O)N[C@@H](CCC(=O)O)C(=O)O)cc3)c2c(=O)[nH]1 [pemetrexed diacid, N-[4-[2-(2-amino-4,7-dihydro-4-oxo-1H-pyrrolo [2,3-d]pyrimidin-5-yl)ethyl]benzoyl]-L-glutamic acid] |
